Laboratory results taken from patent US11590139B2, “Substituted aminopurine compounds, compositions thereof, and methods of treatment therewith” (Signal Pharmaceuticals, LLC, priority 2014, dated 2023).

The compounds below were run on Lox-IMVI melanoma cell line (assay: Lox-IMVI anti-proliferative assay (growth inhibition, Cell Titer-Glo)). Conditions: Homo sapiens; IC50 activity level in the cell-based Lox-IMVI anti-proliferative assay; read-out: Activity.
Assay type: cell-based, human
Method: Determination of the Growth Inhibitory Effect of Aminopurine Compounds. The Lox-IMVI melanoma cell line (Source: NCI-DCTD, catalog No. 0507283) was maintained and tested in RPMI+10% FBS. The seeding density for the cell line was optimized to ensure assay linearity in 384-well plates.
Increasing concentrations of Aminopurine Compound (0.5 nM to 10 μM) were spotted in a 10-point serial dilution fashion (3-fold dilution) in duplicate within the plate via an acoustic dispenser (EDC ATS-100) into an empty 384-well plate. The dimethyl sulfoxide (DMSO) concentration was kept constant for a final assay concentration of 0.2% DMSO. Prior to testing, cells were grown and expanded in culture flasks to provide sufficient amounts of starting material. Cells were then diluted to their desired densities and added directly to the compound-spotted 384-well plates. Cells were allowed to grow for 72 hours in 5% CO2 at 37° C. At the time when exposure of cells to compound began (t0), initial cell number was assessed via a viability assay (Cell Titer-Glo) by quantifying the level of luminescence generated by adenosine-5′-triphosphate (ATP) present in viable cells. After 72 hours, cell viability of compound-treated cells was assessed via Cell Titer-Glo Luminescent Cell Viability Assay (Promega Corporation, Madison, Wis.) and read for luminescence.
All data was normalized and represented as a percentage of the DMSO-treated control cells after 72 h. Results were expressed as a IC50 value, which is the compound concentration required to inhibit 50% of the untreated control cells during the 72 hours of treatment.
A Four Parameter Logistic Model (Sigmoidal Dose-Response Model) was used to determine the compound's IC50. y=(A+((B−A)/(1+((C/x)^D))))
wherein: • A=YMin • B=YMax • C=EC50 • D=Hill Slope • IC50 is the compound concentration when Y=50% of DMSO control • Y=Luminescence unit
All inhibition curves were processed and evaluated using XLFit and Activity Base (IDBS).

SMILES | IC50
NC(=O)[C@H]1CC[C@@H](n2c(Nc3c(Cl)cc(F)cc3Cl)nc3cnc(N[C@@H]4CC[C@@H](O)C4)nc32)CC1 [Example 214, (1S,4s)-4-(8-(2,6-dichloro-4-fluorophenylamino)-2-((1R,3R)-3-hydroxycyclopentylamino)-9H-purin-9-yl)cyclohexanecarboxamide] | > 1000 nM
NC(=O)[C@H]1CC[C@@H](n2c(Nc3ccc(Cl)c(F)c3F)nc3cnc(N[C@H]4C[C@@H](O)C4)nc32)CC1 [Example 310, (1s,4s)-4-(8-(4-chloro-2,3-difluorophenylamino)-2-((1s,3s)-3-hydroxycyclobutylamino)-9H-purin-9-yl)cyclohexanecarboxamide] | > 1000 nM
CC(C)Nc1ncc2nc(Nc3ccc(F)cc3Cl)n([C@H]3CC[C@@H](C(N)=O)CC3)c2n1 [Example 97, (1s,4s)-4-(8-(2-chloro-4-fluorophenylamino)-2-(isopropylamino)-9H-purin-9-yl)cyclohexanecarboxamide] | > 1000 nM
Cc1ccc(F)c(Nc2nc3cnc(NC4CCOCC4)nc3n2[C@H]2CC[C@@H](C(N)=O)CC2)c1Cl [Example 91, (1s,4s)-4-(8-(2-chloro-6-fluoro-3-methylphenylamino)-2-(tetrahydro-2H-pyran-4-ylamino)-9H-purin-9-yl)cyclohexanecarboxamide] | > 1000 nM
CC(C)Nc1ncc2nc(Nc3c(F)cc(Cl)cc3Cl)n([C@H]3CC[C@@H](C(N)=O)CC3)c2n1 [Example 99, (1s,4s)-4-(8-(2,4-dichloro-6-fluorophenylamino)-2-(isopropylamino)-9H-purin-9-yl)cyclohexanecarboxamide] | 250 to 500 nM
CS(=O)(=O)N1CCC(Nc2ncc3nc(Nc4c(F)cc(F)cc4Cl)n([C@H]4CC[C@@H](C(N)=O)CC4)c3n2)CC1 [Example 294, (1s,4s)-4-(8-(2-chloro-4,6-difluorophenylamino)-2-(1-(methylsulfonyl)piperidin-4-ylamino)-9H-purin-9-yl)cyclohexanecarboxamide] | > 1000 nM
NC(=O)[C@H]1CC[C@@H](n2c(Nc3c(F)cc(Cl)cc3F)nc3cnc(N[C@@H]4CC[C@@H](O)C4)nc32)CC1 [Example 215, (1S,4s)-4-(8-(4-chloro-2,6-difluorophenylamino)-2-((1R,3R)-3-hydroxycyclopentylamino)-9H-purin-9-yl)cyclohexanecarboxamide] | 250 to 500 nM
NC(=O)[C@H]1CC[C@@H](n2c(Nc3c(F)cc(F)cc3Cl)nc3cnc(NC4COCC4O)nc32)CC1 (stereo partly shown) [Example 179, (1s,4s)-4-(8-(2-chloro-4,6-difluorophenylamino)-2-(4-hydroxytetrahydrofuran-3-ylamino)-9H-purin-9-yl)cyclohexanecarboxamide] | > 1000 nM
NC(=O)[C@H]1CC[C@@H](n2c(Nc3c(Cl)cc(F)cc3Cl)nc3cnc(N[C@H]4CCCOC4)nc32)CC1 [Example 202, (1R,4s)-4-(8-(2,6-dichloro-4-fluorophenylamino)-2-((S)-tetrahydro-2H-pyran-3-ylamino)-9H-purin-9-yl)cyclohexanecarboxamide] | > 1000 nM

The remaining lines, values ahead:

IC50 | SMILES
> 1000 nM | C[C@@H](CO)Nc1ncc2nc(Nc3c(F)cc(C#N)cc3Cl)n([C@H]3CC[C@@H](C(N)=O)CC3)c2n1 [Example 395, (1R,4s)-4-(8-(2-chloro-4-cyano-6-fluorophenylamino)-2-((S)-1-hydroxypropan-2-ylamino)-9H-purin-9-yl)cyclohexanecarboxamide]
> 1000 nM | CC1(C)CC[C@@H](Nc2ncc3nc(Nc4c(F)cc(F)cc4Cl)n([C@H]4CC[C@@H](C(N)=O)CC4)c3n2)C[C@H]1O [Example 385, (1S,4s)-4-(8-(2-chloro-4,6-difluorophenylamino)-2-((1R,3R)-3-hydroxy-4,4-dimethylcyclohexylamino)-9H-purin-9-yl)cyclohexanecarboxamide]
250 to 500 nM | N#Cc1cc(F)c(Nc2nc3cnc(NC4CCC(F)(F)CC4)nc3n2[C@H]2CC[C@@H](C(N)=O)CC2)c(Cl)c1 [Example 378, (1s,4s)-4-(8-(2-chloro-4-cyano-6-fluorophenylamino)-2-(4,4-difluorocyclohexylamino)-9H-purin-9-yl)cyclohexanecarboxamide]

Same assay, conditions: Homo sapiens; Lox-IMVI anti-proliferative assay, IC50 activity level; read-out: Activity

SMILES | IC50
N#Cc1ccc(Cl)c(Nc2nc3cnc(NC4CCOCC4)nc3n2[C@H]2CC[C@@H](C(N)=O)CC2)c1Cl [Example 443, (1s,4s)-4-(8-(2,6-dichloro-3-cyanophenylamino)-2-(tetrahydro-2H-pyran-4-ylamino)-9H-purin-9-yl)cyclohexanecarboxamide] | > 1000 nM
NC(=O)[C@H]1CC[C@@H](n2c(Nc3c(F)cc(Cl)cc3Cl)nc3cnc(N[C@H]4CCCC[C@H]4O)nc32)CC1 [Example 513, (1R,4s)-4-(8-(2,4-dichloro-6-fluorophenylamino)-2-((1S,2R)-2-hydroxycyclohexylamino)-9H-purin-9-yl)cyclohexanecarboxamide] | > 1000 nM
NC(=O)[C@H]1CC[C@@H](n2c(Nc3c(Cl)cc(C(F)(F)F)cc3Cl)nc3cnc(N[C@@H]4CCC[C@H](O)C4)nc32)CC1 [Example 454, (1S,4s)-4-(8-(2,6-dichloro-4-(trifluoromethyl)phenylamino)-2-((1R,3S)-3-hydroxycyclohexylamino)-9H-purin-9-yl)cyclohexanecarboxamide] | 500 to 1000 nM
C[C@@H](CO)Nc1ncc2nc(Nc3c(Cl)cc(Cl)cc3Cl)n([C@H]3CC[C@](C)(C(N)=O)CC3)c2n1 [Example 481, (1S,4r)-4-(2-((S)-1-hydroxypropan-2-ylamino)-8-(2,4,6-trichlorophenylamino)-9H-purin-9-yl)-1-methylcyclohexanecarboxamide] | > 1000 nM
C[C@]1(C(N)=O)CC[C@@H](n2c(Nc3c(Cl)cc(Cl)cc3Cl)nc3cnc(NC4CC(F)(F)C4)nc32)CC1 [Example 580, (1s,4s)-4-(2-(3,3-difluorocyclobutylamino)-8-(2,4,6-trichlorophenylamino)-9H-purin-9-yl)-1-methylcyclohexanecarboxamide] | 250 to 500 nM

Further lines, results first:

IC50 | SMILES
500 to 1000 nM | C[C@]1(C(N)=O)CC[C@H](n2c(Nc3c(F)cc(C#N)cc3Cl)nc3cnc(NC4CCCC4)nc32)CC1 [Example 486, (1r,4r)-4-(8-(2-chloro-4-cyano-6-fluorophenylamino)-2-(cyclopentylamino)-9H-purin-9-yl)-1-methylcyclohexanecarboxamide]
500 to 1000 nM | NC(=O)[C@H]1CC[C@@H](n2c(Nc3c(F)cc(Cl)cc3Cl)nc3cnc(N[C@@H]4CCC[C@@H](O)C4)nc32)CC1 [Example 422, (1S,4s)-4-(8-(2,4-dichloro-6-fluorophenylamino)-2-((1R,3R)-3-hydroxycyclohexylamino)-9H-purin-9-yl)cyclohexanecarboxamide]

Same assay, conditions: Homo sapiens; Lox-IMVI anti-proliferative assay, cell-based; read-out: Activity (IC50 activity level)

IC50 | SMILES
< 250 nM | N#Cc1cc(F)c(Nc2nc3cnc(N[C@@H]4CCOC[C@H]4F)nc3n2[C@H]2CC[C@@H](C(N)=O)CC2)c(F)c1 [Example 801, (1S,4s)-4-(8-(4-cyano-2,6-difluorophenylamino)-2-((3S,4R)-3-fluorotetrahydro-2H-pyran-4-ylamino)-9H-purin-9-yl)cyclohexanecarboxamide]

Same assay, conditions: Homo sapiens; Lox-IMVI melanoma cell line, anti-proliferative assay; read-out: Activity (IC50 activity level)

SMILES | IC50
C[C@]1(C(N)=O)CC[C@@H](n2c(Nc3c(Cl)cc(C#N)cc3Cl)nc3cnc(N[C@@H]4CCC[C@@H](O)C4)nc32)CC1 [Example 624, (1S,4s)-4-(8-(2,6-dichloro-4-cyanophenylamino)-2-((1R,3R)-3-hydroxycyclohexylamino)-9H-purin-9-yl)-1-methylcyclohexanecarboxamide] | 250 to 500 nM
NC(=O)[C@H]1CC[C@@H](n2c(Nc3c(F)cc(Cl)cc3F)nc3cnc(N[C@@H]4CCCN(Cc5ccccc5)C4)nc32)CC1 [Example 757, (1S,4s)-4-(2-((R)-1-benzylpiperidin-3-ylamino)-8-(4-chloro-2,6-difluorophenylamino)-9H-purin-9-yl)cyclohexanecarboxamide] | > 1000 nM

Further lines, results first:

IC50 | SMILES
< 250 nM | N#Cc1cc(F)c(Nc2nc3cnc(N[C@H]4CCOC[C@H]4F)nc3n2[C@H]2CC[C@@H](C(N)=O)CC2)c(Cl)c1 [Example 670, (1R,4s)-4-(8-(2-chloro-4-cyano-6-fluorophenylamino)-2-((3S,4S)-3-fluorotetrahydro-2H-pyran-4-ylamino)-9H-purin-9-yl)cyclohexanecarboxamide]
> 1000 nM | N#Cc1cc(F)c(Nc2nc3cnc(NC[C@@H]4CCCC[C@H]4O)nc3n2[C@H]2CC[C@@H](C(N)=O)CC2)c(Cl)c1 [Example 664, (1R,4s)-4-(8-(2-chloro-4-cyano-6-fluorophenylamino)-2-(((1S,2R)-2-hydroxycyclohexyl)methylamino)-9H-purin-9-yl)cyclohexanecarboxamide]
< 250 nM | C[C@]1(C(N)=O)CC[C@@H](n2c(Nc3c(F)cc(C#N)cc3Cl)nc3cnc(N[C@@H]4CC[C@@H](O)C4)nc32)CC1 [Example 640, (1S,4s)-4-(8-(2-chloro-4-cyano-6-fluorophenylamino)-2-((1R,3R)-3-hydroxycyclopentylamino)-9H-purin-9-yl)-1-methylcyclohexanecarboxamide]
